# Data reported in ChEMBL document CHEMBL3244022, “Total syntheses of (+/-)-1-carbacefoxitin and -cefamandole and (+/-)-1-oxacefamandole” (1977).
# Experiments:
# Assay type in all cases: functional
# [1] = system: Staphylococcus aureus; assay: Antimicrobial activity against Staphylococcus aureus 2865 by agar dilution method
# [2] = system: Streptococcus pyogenes; assay: Antimicrobial activity against Streptococcus pyogenes 3124 by agar dilution method
# [3] = system: Enterococcus; assay: Antimicrobial activity against Enterococcus 2862 by agar dilution method
# [4] = system: Klebsiella; assay: Antimicrobial activity against Klebsiella 2882 by agar dilution method
# [5] = system: Escherichia coli; assay: Antimicrobial activity against Escherichia coli 2884 by agar dilution method
# [6] = system: Enterobacter; assay: Antimicrobial activity against Enterobacter 2902 by agar dilution method
# [7] = system: Serratia; assay: Antimicrobial activity against Serratia 2852 by agar dilution method
# [8] = system: Enterobacteriaceae; assay: Antimicrobial activity against Aerobacter 2826 by agar dilution method
# [9] = system: Enterobacteriaceae; assay: Antimicrobial activity against Aerobacter 2828 by agar dilution method
# [10] = system: Pseudomonas; assay: Antimicrobial activity against Pseudomonas by agar dilution method
# [11] = system: Providencia; assay: Antimicrobial activity against Providencia 2851 by agar dilution method
# [12] = system: Proteus vulgaris; assay: Antimicrobial activity against Proteus vulgaris 2829 by agar dilution method
# [13] = system: Morganella morganii; assay: Antimicrobial activity against Proteus morganii 2834 by agar dilution method
# [14] = system: Proteus mirabilis; assay: Antimicrobial activity against Proteus mirabilis 2830 by agar dilution method
SMILES,MIC [1],MIC [2],MIC [3],MIC [4],MIC [5],MIC [6],MIC [7],MIC [8],MIC [9],MIC [10],MIC [11],MIC [12],MIC [13],MIC [14]
Cn1nnnc1SCC1=C(C(=O)O)N2C(=O)[C@@H](NC(=O)C(O)c3ccccc3)[C@H]2CC1 (mixture of isomers),1.56 µg/mL,3.12 µg/mL,> 100 µg/mL,1.56 µg/mL,1.56 µg/mL,> 100 µg/mL,> 100 µg/mL,1.56 µg/mL,> 100 µg/mL,> 100 µg/mL,6.25 µg/mL,6.25 µg/mL,6.25 µg/mL,25 µg/mL
Cn1nnnc1SCC1=C(C(=O)O)N2C(=O)[C@@H](NC(=O)[C@H](O)c3ccccc3)[C@H]2OC1 (racemic),< 0.39 µg/mL,< 0.39 µg/mL,25 µg/mL,0.78 µg/mL,< 0.39 µg/mL,12.5 µg/mL,> 100 µg/mL,< 0.39 µg/mL,25 µg/mL,> 100 µg/mL,2.56 µg/mL,1.28 µg/mL,1.28 µg/mL,100 µg/mL
CO[C@@]1(NC(=O)Cc2cccs2)C(=O)N2C(C(=O)O)=C(COC(N)=O)CC[C@@H]21 (racemic),6.25 µg/mL,6.25 µg/mL,> 100 µg/mL,6.25 µg/mL,12.5 µg/mL,> 100 µg/mL,50 µg/mL,12.5 µg/mL,> 100 µg/mL,> 100 µg/mL,6.25 µg/mL,6.25 µg/mL,6.25 µg/mL,12.5 µg/mL
Cn1nnnc1SCC1=C(C(=O)O)N2C(=O)[C@@H](NC(=O)[C@H](O)c3ccccc3)[C@H]2SC1 [CEFAMANDOLE],< 0.39 µg/mL,< 0.39 µg/mL,50 µg/mL,1.56 µg/mL,< 0.39 µg/mL,50 µg/mL,> 100 µg/mL,< 0.39 µg/mL,50 µg/mL,> 100 µg/mL,3.12 µg/mL,1.56 µg/mL,6.25 µg/mL,6.25 µg/mL
CO[C@@]1(NC(=O)Cc2cccs2)C(=O)N2C(C(=O)O)=C(COC(N)=O)CS[C@@H]21 [CEFOXITIN],1.56 µg/mL,0.78 µg/mL,> 100 µg/mL,3.12 µg/mL,1.56 µg/mL,> 100 µg/mL,25 µg/mL,0.78 µg/mL,> 100 µg/mL,> 100 µg/mL,1.56 µg/mL,< 0.39 µg/mL,6.25 µg/mL,1.56 µg/mL
